Molecular target: c-Met (M1250T) (Homo sapiens, UniProt P08581, M1250T)
Test: Z'-LYTE Tyr6 peptide kinase assay, recombinant M1250T c-Met
Format: biochemical
Conditions: read-out: (-)-Oleocanthal^a / IC50 (μM) ± SEM

Sequence of c-Met (M1250T) (P08581 956-1390 M1250T limits assumed): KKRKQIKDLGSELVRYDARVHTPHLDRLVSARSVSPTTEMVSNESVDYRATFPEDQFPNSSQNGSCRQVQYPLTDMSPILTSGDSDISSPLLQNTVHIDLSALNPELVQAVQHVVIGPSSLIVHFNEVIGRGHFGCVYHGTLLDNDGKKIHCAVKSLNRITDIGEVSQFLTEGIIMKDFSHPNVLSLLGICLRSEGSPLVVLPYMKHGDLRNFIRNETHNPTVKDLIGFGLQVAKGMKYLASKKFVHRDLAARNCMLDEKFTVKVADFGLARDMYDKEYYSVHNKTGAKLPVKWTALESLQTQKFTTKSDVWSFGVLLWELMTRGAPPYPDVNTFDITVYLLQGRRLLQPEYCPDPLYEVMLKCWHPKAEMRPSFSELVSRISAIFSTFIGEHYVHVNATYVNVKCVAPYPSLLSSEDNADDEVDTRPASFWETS

## C/C=C(/C=O)[C@@H](CC=O)CC(=O)OCCc1ccc(O)cc1 [S (−)-oleocanthal]
  IC50: 3.9 µM
